Results as given in the Kinase Knowledgebase extract (Sharma et al. 2016).

target: MAPK14 (UniProt Q16539); experiment: Inhibition of MAPK14 Kinase Activity
Sequence (Q16539 whole entry, looked up): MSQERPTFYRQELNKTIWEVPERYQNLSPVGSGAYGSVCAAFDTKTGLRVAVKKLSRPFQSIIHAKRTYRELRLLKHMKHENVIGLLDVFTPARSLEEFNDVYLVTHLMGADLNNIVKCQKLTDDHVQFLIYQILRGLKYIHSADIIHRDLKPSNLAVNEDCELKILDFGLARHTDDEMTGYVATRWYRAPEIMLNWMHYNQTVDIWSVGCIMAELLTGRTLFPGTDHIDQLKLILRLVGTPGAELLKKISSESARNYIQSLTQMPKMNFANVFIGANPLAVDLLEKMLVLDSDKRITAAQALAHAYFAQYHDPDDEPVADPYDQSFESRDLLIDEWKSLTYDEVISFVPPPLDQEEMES

IC50 [µM]	SMILES
≤ 5	CC(C)N1CCC(n2cnc(-c3ccccc3)c2-c2ccc3nc(N)n(S(=O)(=O)C(C)C)c3c2)CC1
≤ 5	CC(C)S(=O)(=O)n1c(N)nc2ccc(-c3c(-c4ccccc4)ncn3Cc3cccnc3)cc21
≤ 5	CC(C)n1cnc(-c2ccccc2)c1-c1ccc2nc(N)n(S(=O)(=O)C(C)C)c2c1
≤ 5	CC(C)S(=O)(=O)n1c(N)nc2ccc(-c3c(-c4ccccc4)ncn3[C@@H](C)CO)cc21
≤ 5	CC(C)S(=O)(=O)n1c(N)nc2ccc(-c3c(-c4ccccc4)ncn3Cc3cccc(F)c3)cc21
≤ 5	CC(C)S(=O)(=O)n1c(N)nc2ccc(-c3c(-c4ccccc4)ncn3C3CCC(N)CC3)cc21 (stereo unspecified)
≤ 5	CC(C)S(=O)(=O)n1c(N)nc2ccc(-c3nc(-c4ccccc4)[nH]c3-c3ccccc3)cc21
≤ 5	CC(C)S(=O)(=O)n1c(N)nc2ccc(-c3nc(-c4cccc(Cl)c4)[nH]c3-c3ccccc3)cc21
≤ 5	CC(C)S(=O)(=O)n1c(N)nc2ccc(-c3nc(-c4cccs4)[nH]c3-c3ccccc3)cc21
≤ 5	CC(C)S(=O)(=O)n1c(N)nc2ccc(-c3c(-c4ccccc4)ncn3Cc3ccc(F)cc3F)cc21
≤ 5	CC(C)S(=O)(=O)n1c(N)nc2ccc(-c3c(-c4ccccc4)ncn3Cc3ccc(F)cc3)cc21
≤ 5	CC(C)S(=O)(=O)n1c(N)nc2ccc(-c3nc(-c4ccncc4)[nH]c3-c3ccccc3)cc21
≤ 5	COCCn1cnc(-c2ccccc2)c1-c1ccc2nc(N)n(S(=O)(=O)C(C)C)c2c1
≤ 5	CC(C)S(=O)(=O)n1c(N)nc2ccc(-c3c(-c4ccccc4)ncn3CCN3CCOCC3)cc21
≤ 5	CC(C)S(=O)(=O)n1c(N)nc2ccc(-c3c(-c4ccc(F)cc4)ncn3C)cc21
≤ 5	CC(C)S(=O)(=O)n1c(N)nc2ccc(-c3c(-c4ccccc4)ncn3C3CCN(Cc4ccccc4)CC3)cc21
≤ 5	CC(C)S(=O)(=O)n1c(N)nc2ccc(-c3c(-c4ccccc4)ncn3CCNC(=O)OC(C)(C)C)cc21
≤ 5	CC(C)S(=O)(=O)n1c(N)nc2ccc(-c3c(-c4ccccc4F)ncn3Cc3cccnc3)cc21
≤ 5	CC(C)S(=O)(=O)n1c(N)nc2ccc(-c3nc(COCc4ccccc4)[nH]c3-c3ccccc3)cc21
≤ 5	CC(C)S(=O)(=O)n1c(N)nc2ccc(-c3c(-c4ccccc4)ncn3-c3ccc([N+](=O)[O-])cc3)cc21
≤ 5	CC(C)S(=O)(=O)n1c(N)nc2ccc(-c3c(-c4ccccc4)ncn3[C@H]3CC[C@H](O)CC3)cc21
≤ 5	CCn1cnc(-c2ccc(F)cc2)c1-c1ccc2nc(N)n(S(=O)(=O)C(C)C)c2c1

The next lines start with the compound.

SMILES	IC50 [µM]
CC(C)S(=O)(=O)n1c(N)nc2ccc(C3C(c4ccccc4)N=C4Sc5ccccc5N43)cc21 (stereo unspecified)	≤ 5
CC(C)S(=O)(=O)n1c(N)nc2ccc(-c3c(-c4ccc(F)cc4)nc4n3CCC4)cc21	≤ 5
CC(C)S(=O)(=O)n1c(N)nc2ccc(-c3c(-c4ccccc4)ncn3[C@H](CO)CC3CCCCC3)cc21	≤ 5
CC(C)S(=O)(=O)n1c(N)nc2ccc(-c3nc(-c4cc(F)cc(F)c4)[nH]c3-c3ccccc3)cc21	≤ 5
Nc1nc2ccc(-c3nc(-c4c(F)cccc4F)[nH]c3-c3ccccc3)cc2[nH]1	≤ 5
CC(C)S(=O)(=O)n1c(N)nc2ccc(-c3nc(-c4ccc([N+](=O)[O-])cc4F)[nH]c3-c3ccccc3)cc21	≤ 5
CC(C)S(=O)(=O)n1c(N)nc2ccc(-c3nc(-c4c(F)cccc4F)oc3-c3ccccc3)cc21	≤ 5
CC(C)c1nc(-c2ccc3nc(N)n(S(=O)(=O)C(C)C)c3c2)c(-c2ccc(F)cc2)[nH]1	≤ 5
Clc1nc2ccc(-c3c(-c4ccccc4)ncn3C3CCCCC3)cc2s1	≤ 5
CCc1ccc(-c2nc(-c3ccc4nc(N)n(S(=O)(=O)C(C)C)c4c3)c(-c3ccccc3)[nH]2)s1	≤ 5
CC(C)S(=O)(=O)n1c(N)nc2ccc(-c3c(-c4ccc(F)cc4)ncn3[C@@H](C)CO)cc21	≤ 5
CC(C)S(=O)(=O)n1c(N)nc2ccc(-c3nc(-c4cccc(OCCN(C)C)c4)[nH]c3-c3ccccc3)cc21	≤ 5
CC(C)S(=O)(=O)n1c(N)nc2ccc(-c3nc(-c4ccc(N)cc4F)[nH]c3-c3ccccc3)cc21	≤ 5
CC(C)S(=O)(=O)n1c(N)nc2ccc(-c3nc(-c4cccs4)[nH]c3-c3cccc(C(F)(F)F)c3)cc21	≤ 5
CC(C)S(=O)(=O)n1c(N)nc2ccc(-c3nc[nH]c3-c3cccc(F)c3F)cc21	≤ 5
CC(C)S(=O)(=O)n1c(N)nc2ccc(-c3c(-c4ccc(F)cc4)ncn3C3CCN(C)CC3)cc21	≤ 5
CC(C)S(=O)(=O)n1c(N)nc2ccc(-c3c(-c4ccccc4F)nc(Br)n3C3CCCCC3)cc21	≤ 5
Nc1nc2ccc(-c3nc[nH]c3-c3ccccc3)cc2s1	≤ 5
CC(C)S(=O)(=O)n1c(N)nc2ccc(-c3c(-c4ccsc4)ncn3[C@H]3CC[C@H](O)CC3)cc21	≤ 5
CC(C)S(=O)(=O)n1c(N)nc2ccc(-c3c(-c4ccc(F)cc4)ncn3C3CCN(C(=O)OC(C)(C)C)CC3)cc21	≤ 5

SMILES	IC50 [µM]
CCOC(=O)N1CCC(n2cnc(-c3ccccc3F)c2-c2ccc3nc(N)n(S(=O)(=O)C(C)C)c3c2)CC1	≤ 5
CCNc1ccc(-c2nc(-c3ccc4nc(N)n(S(=O)(=O)C(C)C)c4c3)c(-c3ccccc3)[nH]2)cc1	≤ 5
CC(C)S(=O)(=O)n1c(N)nc2ccc(-c3nc(-c4ccccc4N4CCN(C)CC4)[nH]c3-c3ccccc3)cc21	≤ 5
CC(C)S(=O)(=O)n1c(N)nc2ccc(-c3nc(-c4c(F)cccc4F)[nH]c3-c3ccccc3)cc21	≤ 5
CC(C)S(=O)(=O)n1c(N)nc2ccc(-c3nc(-c4cccs4)[nH]c3-c3ccc(F)cc3)cc21	≤ 5
CC(C)S(=O)(=O)n1c(N)nc2ccc(-c3nc(-c4ccc(OCCN5CCOCC5)c(F)c4)[nH]c3-c3ccccc3)cc21	≤ 5
CC(C)S(=O)(=O)n1c(N)nc2ccc(-c3nc(-c4c(F)cccc4Cl)[nH]c3-c3ccccc3)cc21	≤ 5
CC(C)S(=O)(=O)n1c(Cc2ccccc2N)nc2ccc(-c3[nH]cnc3-c3ccccc3)cc21	≤ 5
CC(C)S(=O)(=O)n1c(N)nc2ccc(-c3nc(-c4ccc(OCCCN(C)C)c(F)c4)[nH]c3-c3ccccc3)cc21	≤ 5
CC(C)S(=O)(=O)n1c(N)nc2ccc(-c3nc[nH]c3-c3ccc(F)cc3)cc21	≤ 5
C#Cc1nc(-c2ccccc2)c(-c2ccc3nc(N)n(S(=O)(=O)C(C)C)c3c2)n1C1CCCCC1	≤ 5
CC(C)S(=O)(=O)n1c(N)nc2ccc(-c3c(-c4ccc(F)cc4F)ncn3C3CC3)cc21	≤ 5
CC(C)S(=O)(=O)n1c(N)nc2ccc(-c3nc(-c4cccc(F)c4F)[nH]c3-c3ccccc3)cc21	≤ 5
CC(C)S(=O)(=O)n1c(N)nc2ccc(-c3nc(-c4ccsc4)[nH]c3-c3ccc(F)cc3)cc21	≤ 5
CC(C)S(=O)(=O)n1c(N)nc2ccc(-c3nc(-c4ccc(Cl)s4)[nH]c3-c3ccccc3)cc21	≤ 5
Cc1nc(-c2ccc3nc(N)n(S(=O)(=O)C(C)C)c3c2)c(-c2ccc(F)cc2F)n1Cc1ccccc1	≤ 5
CC(C)S(=O)(=O)n1c(N)nc2ccc(-c3nc[nH]c3-c3ccc(F)cc3F)cc21	≤ 5
CC(C)S(=O)(=O)n1c(N)nc2ccc(-c3nc(-c4ccccc4OC(F)(F)F)[nH]c3-c3ccccc3)cc21	≤ 5
CC(C)S(=O)(=O)n1c(N)nc2ccc(-c3nc(-c4c(F)cccc4F)[nH]c3-c3ccc(F)cc3)cc21	≤ 5
